The nature of data set [1]: Hydrate formation when precipitated from water. Format: physicochemical. An excerpt:
Crystals used in the present invention may exist as solvates, i.e. crystals wherein solvent molecules form part of the crystal structure. The solvate may be formed from water, in which case the solvates are often referred to as hydrates. Alternatively, the solvates may be formed from other solvents, such as e.g. ethanol, acetone, or ethyl acetate. The exact amount of solvate often depends on the conditions. For instance, hydrates will typically loose water as the temperature is increased or as the relative humidity is decreased.

Data set [2] in a line: Solubility of salts in water with pH of the saturated solution and identity of the precipitate.
In data set [3] the test system is Spontaneously hypertensive rats (SHR). As to the kind of experiment: Spontaneously hypertensive rats, animal model of ADHD: operant task with delayed food-reward and circadian activity recording. Format: in vivo, rat. How it is done:
Core symptoms of ADHD are attention deficit, hyperactivity and increased impulsiveness. Spontaneously hypertensive rats (SHR) were used as animal model for attention deficit hyperactivity disorder (ADHD), Wistar Kyoto rats (the root strain of SHR) served as controls [Biol. Psychiatry. 57, 1239-47, 2005]. To assess these symptoms, an operant task involving a delayed food-reward was used to measure attention- and impulsiveness-related parameters. Attention deficits were measured as increase in the number of lever presses on the wrong side. Impulsiveness was measured as lever presses and reward chamber inspections during the OFF state in test sessions without delayed reward and during the delay interval in the test sessions with delayed rewarding. Hyperactivity was monitored by circadian recording in infra-red cages.
Methods: Operant testing was performed in 20 hours sessions, each in operant behaviour cages with two levers and adjacent reward chambers on the right and left side of the lever panel. The animals had access to food only via lever presses, and fluid was freely available. Training and testing consisted of the following phases:
• (1) Both levers were continuously active (indicated by a signal light). […] The signal light on the correct side indicated the state of the lever (ON or OFF).
• (1) Like Acquisition (3) • (2) Like (1), except that after a lever press of an active lever, the reward was not presented immediately, but after a delay interval of 5 seconds.

The next data set addresses T1, NET (Rattus norvegicus, UniProt Q9WTR4).
T1 construct: rat cortical synaptosome preparation; from tissue; host or cells: rat cortical synaptosomes
As to the kind of experiment: Norepinephrine (NE) reuptake inhibition, rat cortical synaptosomes, [3H]NE. Format: biochemical. As to conditions: [3H]NE 10 nM. How it is done: Non-specific uptake was determined in the presence of 10 μM talsupram or citalopram and the total uptake was determined in the presence of buffer. Aliquots were incubated for 15 minutes at 37° C. […] Filters were washed and counted in a Wallac MicroBeta counter.

The target of data set [4] is T2, human alpha1A-7 receptors (Homo sapiens, UniProt P35348).
T2 construct: expressed in transfected cells; host or cells: CHO cells
T2 sequence (P35348 1-466): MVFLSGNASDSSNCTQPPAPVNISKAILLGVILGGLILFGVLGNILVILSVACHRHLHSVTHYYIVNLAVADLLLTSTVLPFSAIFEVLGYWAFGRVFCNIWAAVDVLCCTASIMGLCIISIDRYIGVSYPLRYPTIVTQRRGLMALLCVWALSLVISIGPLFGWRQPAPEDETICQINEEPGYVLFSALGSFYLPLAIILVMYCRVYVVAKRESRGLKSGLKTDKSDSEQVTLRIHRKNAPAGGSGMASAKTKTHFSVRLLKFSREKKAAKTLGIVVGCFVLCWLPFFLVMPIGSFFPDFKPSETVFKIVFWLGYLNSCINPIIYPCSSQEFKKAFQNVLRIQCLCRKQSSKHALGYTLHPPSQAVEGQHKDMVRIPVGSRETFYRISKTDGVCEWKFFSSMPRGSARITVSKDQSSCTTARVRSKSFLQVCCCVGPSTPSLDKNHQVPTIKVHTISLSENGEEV
The experiment in a line: Antagonism of adrenaline evoked release of Ca2+ in CHO cells expressing human alpha1A-7 receptors (FLIPR). Format: cell-based. As to conditions: functional assay. How it is done: These experiments were carried out essentially as described below. All cells were cultured in DMEM medium supplemented with 10% BCS, 4 mM L-glutamine (or 2 mM in the case of COS-7), and 100 units/ml penicillin plus 100 μg/ml streptomycin, at 37° C., in 5% CO2. Twenty-four hours prior to assays, CHO cells expressing the human alpha1A-7 receptors were seeded into 384-well black wall microtiter plates coated with poly-D-lysine. […] After excess dye was discarded, cells were washed in assay buffer and layered with a final volume equal to 45 μl/well (or 30 ul/well for antagonist assay). […] Basal fluorescence was monitored in a fluorometric imaging plate reader or FLIPR™ from Molecular Devices (Sunnyvale, Calif.) with an excitation wavelength of 488 nm and an emission range of 500 to 560 nm. Laser excitation energy was adjusted so that basal fluorescence readings were approximately 8,000 relative fluorescent units (RFU). Cells were then stimulated at room temperature with agonists diluted in assay buffer (15 μl), and RFU were measured at 1.5 second intervals over a period of 2.5 min. Maximum change in fluorescence was calculated for each well. Concentration-response curves derived from the maximum change in fluorescence were analyzed by nonlinear regression (Hill equation).

The subject of data set [5] is extracellular levels of acetylcholine. The experiment in a line: Microdialysis, extracellular acetylcholine in prefrontal cortex of freely-moving Wistar rats (Example 2F). As to conditions: s.c. Format: in vivo, rat. How it is done:
Male Wistar rats (280-350 g; Harlan, Zeist, The Netherlands) were used for the experiments. Rats were individually housed in plastic cages (30×30×40 cm) and had ad libitum access to food and water.
Rats were anesthetized using isoflurane (2%, 400 mL/min N2O, 400 ml/min O2). Lidocain (10% m/v) was used for local anesthesia. Each animal was placed into a stereotaxic frame (Kopf instruments, USA), and home-made I-shaped probes (Hospal AN 69 membrane, 4 mm exposed surface) were inserted into the medial prefrontal cortex (mPFC) using the rat brain atlas of Paxinos and Watson (1982). Coordinates for the tip of the probe was mPFC [AP=3.4 mm, L=−0.8 mm, V=5.0 mm]. The probe was then fixed to the skull with dental cement and a srew. Flunixin (1 mg/kg s.c.) was administered as post-operative analgesic.
Experiments were carried out 24-48 hours after surgery. […] Samples were collected by an automated fraction collector (CMA 142), and stored at −80° C. until analyzed. […]
Concentrations of acetylcholine were determined by HPLC with tandem mass spectrometry (MS/MS) detection. […]
The LC/MS analyses were performed using a API 4000 MS/MS system consisting of a API 4000 MS/MS detector and a Turbo Ion Spray interface (both from Applied Biosystems, the Netherlands). […] Data were calibrated and quantitated using the Analyst™ data system (Applied Biosystem, version 1.2). […]

For data set [6] the test system is unchanged. The experiment in a line: Microdialysis, extracellular acetylcholine in prefrontal cortex and ventral hippocampus of Sprague-Dawley rats (Example 2G). Format: in vivo, rat. How it is done: Male Sprague-Dawley rats, initially weighing 275-300 g, were used. The animals were housed under a 12-hr light/dark cycle under controlled conditions for regular in-door temperature (21±2° C.) and humidity (55±5%) with food and tap water available ad libitum.
Rats were anaesthetised with hypnorm/dormicum (2 ml/kg) and intracerebral guide cannulas (CMA/12) were stereotaxically implanted into the hippocampus, aiming to position the dialysis probe tip in the ventral hippocampus (co-ordinates: 5,6 mm posterior to bregma, lateral −5,0 mm, 7,0 mm ventral to dura or in the frontal cortex (co-ordinates: 3,2 mm anterior to bregma; lateral, 0,8 mm; 4,0 mm ventral to dura). Anchor screws and acrylic cement were used for fixation of the guide cannulas. The body temperature of the animals was monitored by rectal probe and maintained at 37° C. The rats were allowed to recover from surgery for 2 days, housed singly in cages. […]
Concentration of acetylcholine (ACh) in the dialysates was analysed by means of HPLC with electrochemical detection using a mobile phase consisting of 100 mM disodium hydrogenphosphate, 2.0 mM octane sulfonic acid, 0.5 mM tetramethyl-ammonium chloride and 0.005% MB (ESA), pH 8.0. […] The latter was detected electrochemical by using a platinum electrode (Analytical cell: ESA, model 5040). […]

Setting [7] is: SHR, methylphenidate 2 and 5 mg/kg i.p. intermittent, ~10 mg/kg/day chronic via drinking water.
Where [8] appears, read: SHR rats, 5 and 10 mg/kg i.p., injected 30 min before testing.

The IC50 is the concentration that inhibits the measured activity by half. Low values mean greater potency, high ones weaker potency.

T1 sequence (Q9WTR4 1-597): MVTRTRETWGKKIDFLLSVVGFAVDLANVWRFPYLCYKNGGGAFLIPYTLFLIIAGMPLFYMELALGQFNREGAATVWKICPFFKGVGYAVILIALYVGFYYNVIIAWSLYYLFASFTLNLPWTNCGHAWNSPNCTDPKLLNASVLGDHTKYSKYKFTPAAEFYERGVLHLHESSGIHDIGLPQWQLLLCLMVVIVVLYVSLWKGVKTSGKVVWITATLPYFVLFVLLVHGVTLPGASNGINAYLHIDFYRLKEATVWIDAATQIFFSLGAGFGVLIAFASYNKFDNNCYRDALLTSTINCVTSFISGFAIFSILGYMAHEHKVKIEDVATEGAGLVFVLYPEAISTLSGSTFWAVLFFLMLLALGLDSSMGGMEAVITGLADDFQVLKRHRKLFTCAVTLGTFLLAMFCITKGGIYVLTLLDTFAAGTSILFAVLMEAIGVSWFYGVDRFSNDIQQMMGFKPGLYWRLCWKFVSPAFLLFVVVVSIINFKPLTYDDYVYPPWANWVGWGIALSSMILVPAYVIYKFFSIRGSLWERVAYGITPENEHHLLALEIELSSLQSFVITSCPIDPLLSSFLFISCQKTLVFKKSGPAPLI

As for `Cc1ccc(Sc2ccccc2C2CCNCC2)cc1`, the formation of hydrates entry in data set [1] was “do”.

For `O=C(O)CCCC(=O)O` [Glutaric acid, 1,5-pentanedioic acid 1:1], in data set [2] (pH in the saturated solution of the salt in water), the “Resulting pH” value was found to be 4.6. For the same molecule, the Precipitate result in data set [2] (whether precipitate isolated after the solubility determination is identical to the compound dissolved, indicative of hydrate formation) was “=start”.

For the molecule `Br.Cc1ccc(Sc2ccccc2C2CCNCC2)cc1` [HBr, 4-(2-p-Tolylsulfanyl-phenyl)-piperidine hydrobromide], in data set [1], the formation of hydrates result was “does not form hydrates”.

Turning to `COC(=O)C(c1ccccc1)C1CCCCN1` (centres unmarked) [Methylphenidate, reference compound], in data set [3] (setting [7]), the attention deficit result is “no reduction” and the impulsiveness result is listed as “no reduction”. Further, in data set [3] (chronic administration via drinking water, ~10 mg/kg/day), the “time course of activity” value is given as “did not alter”. The “hyperactivity of SHR” value in data set [3] (intermittent administration, 2 and 5 mg/kg i.p., effect lasted a few hours) is “markedly and dose-dependently aggravated”.

For `O=C(O)CCC(=O)O` [Succinic acid, 1,4-butanedioic acid, 2:1], the formation of hydrates result in data set [1] is on record as “do”.

Turning to `Cc1ccc(Sc2ccccc2C2CCNCC2)cc1` [compound I, 4-[2-(4-methylphenylsulfanyl)-phenyl]piperidine], on NET, half-maximal inhibition (IC50) was put at 0.023 µM. Moreover, in data set [4], the “adrenaline evoked release of Ca2+ from intracellular stores” value was “antagonises”. For the same molecule, the “extracellular level of acetylcholine” value in data set [5] was “increase”. For the same molecule, the “extracellular level of acetylcholine” value in data set [6] is on record as “increase”. Also, the “acquisition of the task or general motivation of food seeking” value in data set [3] (SHR rats, 5 and 10 mg/kg i.p.) was “did not affect”. In data set [3] (setting [8]), the attention deficits entry is recorded as “reduced” and the impulsiveness entry is recorded as “reduced”. In data set [3] (SHR rats, 5 and 10 mg/kg i.p., circadian activity monitoring, for 1 hour without prolonged effects), the “hyperactivity - locomotor activity” value is “dose-dependently depressed”.

(Values after patent publication US20100144788A1 (priority 2007, published 2010).)
